Data on 18 compounds can be found in US8664233B2, “Substituted 5H-pyrimido[5,4-B]indoles, method for the production thereof and use thereof for treating non-solid malignant tumors of the blood-producing system” (The Medicines Company (Leipzig) GmbH, priority 2006, dated 2014).

The subject of data set [1] is B-CLL cells. Description: formazane reduction assay (MMT test), cytotoxicity after 24 h incubation of the patient's blood. Format: cell-based, human. As to the method: Compounds according to the invention were tested as inductors of a cytotoxic reaction, i.e. triggering of apoptosis, in the case of chronic lymphatic leukemia (B-CLL).
Fludarabine, which is used in B-CLL as a standard chemotherapeutic agent, was employed as a positive control. A cytotoxicity up to a maximum of 60% was achievable under equal test conditions.
The cytotoxicity of the B-CLL cells was determined by means of a commercially available formazane reduction assay (MMT test) after 24 h of incubation of the patient's blood with the active substances.

Data set [2] relates to B-CLL cells. Description: synergistic effect with fludarabine on induction of apoptosis in purified B-CLL cells. The format is cell-based, human. An excerpt:
As shown, a combination of an exemplary substance according to the invention with fludarabine already yields a total toxicity of the B-CLL cells of over 80% with a 10% toxic concentration of each partner. In the case of an additive effect of both substances, only about 20% toxicity could be expected. If the concentration of both substances is increased such that each substance kills 20% of the cells in a separate test, a toxicity of almost 100% is obtained in this synergy experiment.

The test system of another data set is caspases 3, 7 and 9. Nature of the data set: caspase-Glo 3/7 and caspase-Glo 9 assays in EHEB cells. The format is cell-based, human. The note with it: 4.5 and 24 hours (FIG. 2). The method, then: In order to determine the specific induction of programmed cell death (apoptosis), a detection thereof was carried out by means of caspase-3/7 activity; the caspase-3/7 activity is described in the literature as a safe detection of apoptosis.
The EHEB cells were prepared as described above and incubated with three concentration dilutions, each in triple determination, for 4.5 and 24 hours. Thus, substance final concentrations were selected from 50.0, 10.0 and 2.00 μM for the 4 hour batches as well as 10.0, 1.00 and 0.50 μM for the 24 hour batches. In this connection, staurosporine in a final concentration of 2.00 μM (4 hour batches) and 0.50 μM (24 hour batches) acted as the positive control. In order to detect the caspase-3/7 activity, the caspase-Glo 3/7 and caspase-Glo 9 assays of Promega company were used; in this connection, the enzyme activity was determined by means of a luminescence signal which was recorded with the FluostarOPTIMA measurement device (BMG Labtechnologies).
The results were evaluated by a comparison between the relative luminescence intensity of the test substances and the positive control (staurosporine=100%) by means of the Excel program. The relative intensities for the substances according to the invention are up to 100% with an inhibitor concentration between 1 and 50 μM. […]

Data set [3] deals with B-CLL cells. Nature of the data set: cytotoxicity / vitality of purified primary B-CLL cells (CellTiter-Glo ATP assay, resazurine vitality test), 72 h. Particulars: Homo sapiens; leukemic B lymphocytes of a B-CLL patient with an 11q deletion (FIG. 1). The format is cell-based. An excerpt:
In order to check the selective effect of various substances as to the vitality of human cells, isolated B cells from patients suffering from chronic B cell leukemia (B-CLL) and also purified […] (PBMC) and erythrocytes from healthy donors were investigated. The permanent human EHEB B-CLL cell line was selected as a model system for the chronic lymphatic B cell leukemia. It is known in the literature that as compared to primary B-CLL cells the EHEB cells respond in a much more insensitive fashion to proapoptotic signals. The cells were incubated with concentration series of the test substances for 3 days and the vitality of the cells was determined by means of CellTiter-Glo™ ATP assay (Promega, catalog number G7571) according to the manufacturer's instructions after this period.
Primary tumor cells are isolated from whole blood by means of density gradient centrifugation. To this end, the patient's whole blood is incubated with 50.0 μl human B cell enrichment cocktail (RosetteSep; Stem Cell Technology, Cat #15064) per milliliter whole blood at room temperature (RT) for 20 min. […] Having determined the cell number by means of trypan blue staining (trypan blue solution of Sigma-Aldrich, catalog no. T-8154) the desired number of test plates can be prepared. […]
(In general: Cellular ATP, detected with luciferase, serves as a proxy for viable cell number.)

Where two headings read alike, the source gives them in different places. A value given as a limit tells only on which side of the number the result lay.

Turning to `CCOc1nc(N2CCNCC2)c2[nH]c3cc(-c4ccncc4)ccc3c2n1` [2-ethoxy-4-(piperazin-1-yl)-7-(pyridin-4-yl)-5H-pyrimido[5,4-b]indole], in the data set with B-CLL cells [1], the “cytotoxicity (apoptosis) of the leukemia cells, maximum reached” value (“cytotoxicity (apoptosis)” for short) is listed as “up to 100%”.

With `OCCOc1nc(N2CCNCC2)nc2c1[nH]c1cc(-c3ccncc3)ccc12` [2-{2-(piperazin-1-yl)-7-(pyridin-4-yl)-5H-pyrimido[5,4-b]indol-4-yloxy}ethanol], the “cytotoxicity (apoptosis)” value in the data set on B-CLL cells [1] was “up to 100%”.

In the case of `CCOc1nc(N2CCNCC2)nc2c1[nH]c1cc(-c3cccc(C(=O)O)c3)ccc12.Cl` [3-(4-ethoxy-2-(piperazin-1-yl)-5H-pyrimido[5,4-b]indol-7-yl)benzoic acid hydrochloride], the “cytotoxicity (apoptosis)” value with B-CLL cells [1] is reported as “up to 100%”.

`CCOc1nc(N2CCNCC2)nc2c1[nH]c1cc(-c3cccc(C(=O)OC)c3)ccc12` [3-(4-ethoxy-2-(piperazin-1-yl)-5H-pyrimido[5,4-b]indol-7-yl)benzoic acid methyl ester]: the “cytotoxicity (apoptosis)” value with B-CLL cells [1] is “up to 100%”.

As for `CCOC(=O)c1ccc(-c2ccc3c(c2)[nH]c2c(OCC)nc(N4CCNCC4)nc23)cc1` [4-(4-ethoxy-2-(piperazin-1-yl)-5H-pyrimido[5,4-b]indol-7-yl)benzoic acid ethyl ester], the “cytotoxicity (apoptosis)” value in the data set with B-CLL cells [1] is on record as “up to 100%”.

Consider `CCOc1nc(N2CCNCC2)nc2c1[nH]c1cc(-c3ccc(C(=O)O)cc3)ccc12.Cl` [4-(4-ethoxy-2-(piperazin-1-yl)-5H-pyrimido[5,4-b]indol-7-yl)benzoic acid hydrochloride], for which the “cytotoxicity (apoptosis)” value in the data set with B-CLL cells [1] is “up to 100%”.

As to `CCOc1nc(N2CCNCC2)nc2c1[nH]c1cc(-c3ccc(O)cc3)ccc12.Cl` [4-(4-ethoxy-2-(piperazin-1-yl)-5H-pyrimido[5,4-b]indol-7-yl)phenol-hydrochloride], the “cytotoxicity (apoptosis)” value in the data set with B-CLL cells [1] is on record as “up to 100%”.

For the compound `CCOc1nc(N2CCN(C)CC2)nc2c1[nH]c1cc(-c3ccncc3)ccc12` [4-ethoxy-2-(4-methylpiperazin-1-yl)-7-(pyridin-4-yl)-5H-pyrimido[5,4-b]indole], the “cytotoxicity (apoptosis)” value in the data set on B-CLL cells [1] is listed as “up to 100%”.

Take `CCOc1nc(N2CCNCC2)nc2c1[nH]c1cc(-c3ccc(N)nc3)ccc12` [4-ethoxy-2-(piperazin-1-yl)-7-(2-aminopyridin-5-yl)-5H-pyrimido[5,4-b]indole]: the “cytotoxicity (apoptosis)” value in the data set on B-CLL cells [1] is “up to 100%”.

Consider `CCOc1nc(N2CCNCC2)nc2c1[nH]c1cc(-c3ccc(OC)c(OC)c3)ccc12` [4-ethoxy-2-(piperazin-1-yl)-7-(3,4-dimethoxy-phenyl)-5H-pyrimido[5,4-b]indole], for which, in the data set on B-CLL cells [1], the “cytotoxicity (apoptosis)” value is given as “up to 100%”.

Consider `CCOc1nc(N2CCNCC2)nc2c1[nH]c1cc(-c3cccnc3)ccc12` [4-ethoxy-2-(piperazin-1-yl)-7-(pyridin-3-yl)-5H-pyrimido[5,4-b]indole], for which the “cytotoxicity (apoptosis)” value in the data set with B-CLL cells [1] was “up to 100%”.

On to `CCOc1nc(N2CCNCC2)nc2c1[nH]c1cc(-c3ccncc3)ccc12` [4-ethoxy-2-(piperazin-1-yl)-7-(pyridin-4-yl)-5H-pyrimido[5,4-b]indole], for which the “cytotoxicity (apoptosis)” value in the data set with B-CLL cells [1] is recorded as “up to 100%”. For the same compound, in the data set with B-CLL cells [2] (combination with fludarabine, 10% toxic concentration of each partner), the “total toxicity of the B-CLL cells” value was “over 80%”. Further, the “toxicity of the B-CLL cells” value with B-CLL cells [2] (combination with fludarabine, each substance kills 20% of the cells in a separate test) is about 100%. Besides, the “effect of combination with fludarabine on the induction of apoptosis” value in the data set with B-CLL cells [2] (purified B-CLL cells (FIG. 4)) is recorded as “synergistic effect”. Moreover, in the data set on caspases 3, 7 and 9, the “activation of caspases 3, 7 and 9” value was “activating caspases 3, 7, and 9”. Also, 80 nM corresponded to half-maximal inhibition in the data set on B-CLL cells [3] (IC50).

Consider `CCOc1nc(N2CCNCC2)nc2c1[nH]c1ccc(-c3ccncc3)cc12` [4-ethoxy-2-(piperazin-1-yl)-8-(pyridin-4-yl)-5H-pyrimido[5,4-b]indole], for which the “cytotoxicity (apoptosis)” value in the data set on B-CLL cells [1] is listed as “up to 100%”.

On to `CCOc1nc(N2CCNCC2)nc2c1[nH]c1cc(N3CCOCC3)ccc12` [4-ethoxy-7-morpholino-2-(piperazin-1-yl)-5H-pyrimido[5,4-b]indole], for which the “cytotoxicity (apoptosis)” value with B-CLL cells [1] is “up to 100%”.

As to `CCOc1nc(N2CCNCC2)nc2c1[nH]c1cc(-c3ccncc3)cc(OC)c12` [4-ethoxy-9-methoxy-2-(piperazin-1-yl)-7-(pyridin-4-yl)-5H-pyrimido[5,4-b]indole], the “cytotoxicity (apoptosis)” value with B-CLL cells [1] was “up to 100%”.

On to `CCOc1nc(N2CCNCC2)nc2c1[nH]c1cc(-c3ccccc3N)cc(OC)c12` [Example 1, 2-(4-ethoxy-9-methoxy-2-(piperazin-1-yl)-5H-pyrimido[5,4-b]indol-7-yl)benzene amine], for which the “cytotoxicity (apoptosis)” value with B-CLL cells [1] was “up to 100%”.

For `CCOc1nc(N2CCNCC2)nc2c1[nH]c1c(-c3ccncc3)cccc12` [Example 8, 4-ethoxy-2-(piperazin-1-yl)-6-(pyridin-4-yl)-5H-pyrimido[5,4,-b]indole], the “cytotoxicity (apoptosis)” value in the data set on B-CLL cells [1] is given as “up to 100%”.

For the compound `Nc1nc(F)nc2c1ncn2[C@@H]1O[C@H](CO)[C@@H](O)[C@@H]1O` [Fludarabine, fludarabine, reference compound], the “cytotoxicity (apoptosis)” value in the data set with B-CLL cells [1] (ex vivo, blood of B-CLL patients, 24 h incubation) is recorded as at most 60%.
